Assay results: patent US7763627B2, “Tie-2 modulators and methods of use” (Exelixis, Inc., priority 2003, dated 2010)

Target: Tie-2 (Homo sapiens, UniProt Q02763)
Assay: Tie-2 tyrosine kinase inhibition (ATP consumption by luciferase/luciferin chemiluminescence or 33P-ATP incorporation into pEY substrate)
Format: biochemical
Details: human enzyme Tie-2; inhibition given as class symbol
Protocol: Tyrosine kinase activity is determined by 1) measurement of kinase-dependent ATP consumption by in the presence of a generic substrate such as polyglutamine, tyrosin (pEY), by luciferase/luciferin-mediated chemiluminescence or; 2) incorporation of radioactive phosphate derived from ^33P-ATP into a generic substrate which has been adsorbed onto the well surface of polystyrene microtiter plates. Phosphorylated substrate products are quantified by scintillation spectrometry.
Inhibition is indicated as IC50 with following key: A=IC50 less than 50 nM, B=IC50 greater than 50 nM, but less than or equal to 1000 nM, C=IC50 greater than 1000 nM, but less than 10,000 nM, and D=IC50 10,000 nM or greater. The abbreviation for human enzyme, Tie-2, is defined as tyrosine kinase with immunoglobulin and EGF repeats.

Chain of Tie-2 (Q02763 23-1124): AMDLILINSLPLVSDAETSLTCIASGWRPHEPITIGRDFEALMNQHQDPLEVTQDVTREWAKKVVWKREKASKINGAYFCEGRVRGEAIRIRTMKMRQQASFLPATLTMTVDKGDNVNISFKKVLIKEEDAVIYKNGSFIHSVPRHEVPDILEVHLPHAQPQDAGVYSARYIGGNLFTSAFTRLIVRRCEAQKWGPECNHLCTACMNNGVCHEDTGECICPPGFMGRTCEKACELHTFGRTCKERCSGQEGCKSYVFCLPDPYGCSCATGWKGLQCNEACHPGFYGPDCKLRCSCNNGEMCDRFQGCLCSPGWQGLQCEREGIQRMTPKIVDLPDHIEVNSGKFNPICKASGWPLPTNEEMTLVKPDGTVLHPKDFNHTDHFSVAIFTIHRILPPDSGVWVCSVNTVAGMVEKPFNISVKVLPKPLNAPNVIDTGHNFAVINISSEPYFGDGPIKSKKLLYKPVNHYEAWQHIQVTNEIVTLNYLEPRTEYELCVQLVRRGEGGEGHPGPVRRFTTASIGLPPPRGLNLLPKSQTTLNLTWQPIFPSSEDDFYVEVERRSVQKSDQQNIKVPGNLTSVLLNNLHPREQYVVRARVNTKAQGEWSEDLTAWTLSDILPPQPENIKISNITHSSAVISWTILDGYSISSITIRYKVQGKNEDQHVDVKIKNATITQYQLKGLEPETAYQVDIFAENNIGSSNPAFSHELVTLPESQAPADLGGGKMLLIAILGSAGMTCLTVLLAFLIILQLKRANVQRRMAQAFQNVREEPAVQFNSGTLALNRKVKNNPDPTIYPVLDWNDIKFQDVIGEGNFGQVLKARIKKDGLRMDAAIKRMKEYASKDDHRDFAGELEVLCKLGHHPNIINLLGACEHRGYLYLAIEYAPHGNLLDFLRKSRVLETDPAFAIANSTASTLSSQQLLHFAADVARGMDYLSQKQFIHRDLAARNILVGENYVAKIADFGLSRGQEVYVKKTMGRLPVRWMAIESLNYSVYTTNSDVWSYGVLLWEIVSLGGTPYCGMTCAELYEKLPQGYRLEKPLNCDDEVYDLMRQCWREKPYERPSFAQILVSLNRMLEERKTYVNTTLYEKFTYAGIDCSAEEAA

SMILES | IC50 [µM]
COc1cc(OC)c(CNc2nc(-c3ccncc3)nc3ccccc23)c(OC)c1 [Compound 20, 2-pyridin-4-yl-N-{[2,4,6-tris(methyloxy)phenyl]methyl}quinazolin-4-amine] | ≥ 10
c1ccc2c(c1)CC[C@@H](Nc1nc(-c3ccncc3)nc3ccccc13)C2 [Compound 12, 2-pyridin-4-yl-N-[(2R)-1,2,3,4-tetrahydronaphthalen-2-yl]quinazolin-4-amine] | 0.05 to 1
O[C@@H]1Cc2ccccc2[C@@H]1Nc1nc(-c2ccccn2)nc2ccccc12 [Compound 37, (1S,2R)-1-[(2-pyridin-2-ylquinazolin-4-yl)amino]-2,3-dihydro-1H-inden-2-ol] | ≥ 10
CC(C)[C@H](CO)Nc1nc(-c2ccncc2)nc2ccccc12 [Compound 53, (2R)-3-methyl-2-[(2-pyridin-4-ylquinazolin-4-yl)amino]butan-1-ol] | ≥ 10
c1ccc2c(c1)CC[C@H](Nc1nc(-c3ccncc3)nc3ccccc13)C2 [Compound 15, 2-pyridin-4-yl-N-[(2S)-1,2,3,4-tetrahydronaphthalen-2-yl]quinazolin-4-amine] | 1 to 10
OC[C@@H](Cc1ccccc1)Nc1nc(-c2ccncc2)nc2ccccc12 [Compound 60, (2R)-3-phenyl-2-[(2-pyridin-4-ylquinazolin-4-yl)amino]propan-1-ol] | ≥ 10
c1ccc2c(NCCN3CCCC3)nc(-c3ccncc3)nc2c1 [Compound 2, 2-pyridin-4-yl-N-(2-pyrrolidin-1-ylethyl)quinazolin-4-amine] | ≥ 10
c1ccc2c(c1)CCC2Nc1nc(-c2ccncc2)nc2ccccc12 (stereo not drawn) [Compound 9, N-(2,3-dihydro-1H-inden-1-yl)-2-pyridin-4-ylquinazolin-4-amine] | 0.05 to 1
CC(C)(C)OC(=O)N1CCC(Nc2nc(-c3ccncc3)nc3ccccc23)CC1 [Compound 19, 1,1-dimethylethyl 4-[(2-pyridin-4-ylquinazolin-4-yl)amino]piperidine-1-carboxylate] | 1 to 10
OCCCNc1nc(-c2ccncc2)nc2ccccc12 [Compound 6, 3-[(2-pyridin-4-ylquinazolin-4-yl)amino]propan-1-ol] | ≥ 10
O[C@@H]1Cc2ccccc2[C@@H]1Nc1nc(-c2cccnc2)nc2ccccc12 [Compound 33, (1S,2R)-1-[(2-pyridin-3-ylquinazolin-4-yl)amino]-2,3-dihydro-1H-inden-2-ol] | 1 to 10
O[C@H]1Cc2ccccc2[C@H]1Nc1nc(-c2ccncc2)nc2ccccc12 [Compound 17, (1R,2S)-1-[(2-pyridin-4-ylquinazolin-4-yl)amino]-2,3-dihydro-1H-inden-2-ol] | ≥ 10
CC(C)Oc1ccc(Nc2nc(-c3ccncc3)nc3ccccc23)cc1 [Compound 25, N-{4-[(1-methylethyl)oxy]phenyl}-2-pyridin-4-ylquinazolin-4-amine] | 1 to 10
O[C@@H]1CCCC[C@H]1Nc1nc(-c2ccccc2)nc2ccccc12 [Compound 29, (1R,2R)-2-[(2-phenylquinazolin-4-yl)amino]cyclohexanol] | ≥ 10
O[C@@H]1Cc2ccccc2[C@@H]1Nc1nc(-c2ccncc2)nc2ccc(Cl)cc12 [Compound 31, (1S,2R)-1-[(6-chloro-2-pyridin-4-ylquinazolin-4-yl)amino]-2,3-dihydro-1H-inden-2-ol] | < 0.05
c1ccc(Nc2ccc(Nc3nc(-c4ccncc4)nc4ccccc34)cc2)cc1 [Compound 23, N-phenyl-N′-(2-pyridin-4-ylquinazolin-4-yl)benzene-1,4-diamine] | ≥ 10
Oc1ccc(-c2nc(N[C@H]3c4ccccc4C[C@H]3O)c3ccccc3n2)cn1 [Compound 64, 5-(4-{[(1S,2R)-2-hydroxy-2,3-dihydro-1H-inden-1-yl]amino}quinazolin-2-yl)pyridin-2-ol] | ≥ 10
CCc1cc(-c2nc(N[C@H]3c4ccccc4C[C@H]3O)c3ccccc3n2)ccn1 [Compound 43, (1S,2R)-1-{[2-(2-ethylpyridin-4-yl)quinazolin-4-yl]amino}-2,3-dihydro-1H-inden-2-ol] | ≥ 10
Cc1ccc2c(N[C@H]3c4ccccc4C[C@H]3O)nc(-c3ccncc3)nc2c1 [Compound 51, (1S,2R)-1-[(7-methyl-2-pyridin-4-ylquinazolin-4-yl)amino]-2,3-dihydro-1H-inden-2-ol] | < 0.05
c1ccc2c(NCC3CCCCC3)nc(-c3ccncc3)nc2c1 [Compound 4, N-(cyclohexylmethyl)-2-pyridin-4-ylquinazolin-4-amine] | 1 to 10
Oc1cc2ccccc2cc1Nc1nc(-c2ccncc2)nc2ccccc12 [Compound 24, 3-[(2-pyridin-4-ylquinazolin-4-yl)amino]naphthalen-2-ol] | 1 to 10
O[C@@H]1Cc2ccccc2[C@@H]1Nc1nc(-c2ccccc2)nc2ccccc12 [Compound 26, (1S,2R)-1-[(2-phenylquinazolin-4-yl)amino]-2,3-dihydro-1H-inden-2-ol] | ≥ 10
c1ccc2c(N3CCNCC3)nc(-c3ccncc3)nc2c1 [Compound 13, 4-piperazin-1-yl-2-pyridin-4-ylquinazoline] | ≥ 10

SMILES | IC50 [µM]
OCCN(Cc1ccccc1)c1nc(-c2ccncc2)nc2ccccc12 [Compound 62, 2-[(phenylmethyl)(2-pyridin-4-ylquinazolin-4-yl)amino]ethanol] | 1 to 10
OC1CCCN(c2nc(-c3ccncc3)nc3ccccc23)C1 (stereo not drawn) [Compound 47, 1-(2-pyridin-4-ylquinazolin-4-yl)piperidin-3-ol] | ≥ 10
O[C@@H]1Cc2ccccc2[C@@H]1Nc1nc(-c2ccncc2)nc2cc(C(F)(F)F)ccc12 [Compound 48, (1S,2R)-1-{[2-pyridin-4-yl-7-(trifluoromethyl)quinazolin-4-yl]amino}-2,3-dihydro-1H-inden-2-ol] | 0.05 to 1
c1ccc2c(NCCN3CCOCC3)nc(-c3ccncc3)nc2c1 [Compound 10, N-(2-morpholin-4-ylethyl)-2-pyridin-4-ylquinazolin-4-amine] | ≥ 10
O[C@H]1Cc2ccccc2[C@H]1Nc1nc(-c2ccccc2)nc2ccccc12 [Compound 27, (1R,2S)-1-[(2-phenylquinazolin-4-yl)amino]-2,3-dihydro-1H-inden-2-ol] | ≥ 10
OCCN1CCN(Nc2nc(-c3ccncc3)nc3ccccc23)CC1 [Compound 66, 2-{-4-[(2-pyridin-4-ylquinazolin-4-yl)amino]piperazin-1-yl}ethanol] | ≥ 10
CSc1nccc(-c2nc(N[C@H]3c4ccccc4C[C@H]3O)c3ccccc3n2)n1 [Compound 65, (1S,2R)-1-({2-[2-(methylthio)pyrimidin-4-yl]quinazolin-4-yl}amino)-2,3-dihydro-1H-inden-2-ol] | ≥ 10
OC[C@@H](O)CNc1nc(-c2ccncc2)nc2ccccc12 [Compound 39, (2S)-3-[(2-pyridin-4-ylquinazolin-4-yl)amino]propane-1,2-diol] | ≥ 10
c1ccc2c(NC3CCNCC3)nc(-c3ccncc3)nc2c1 [Compound 21, N-piperidin-4-yl-2-pyridin-4-ylquinazolin-4-amine] | ≥ 10
c1ccc2c(NCCN3CCNCC3)nc(-c3ccncc3)nc2c1 [Compound 32, N-(2-piperazin-1-ylethyl)-2-pyridin-4-ylquinazolin-4-amine] | ≥ 10
Nc1nccc(-c2nc(N[C@H]3c4ccccc4C[C@H]3O)c3ccccc3n2)n1 [Compound 63, (1S,2R)-1-{[2-(2-aminopyrimidin-4-yl)quinazolin-4-yl]amino}-2,3-dihydro-1H-inden-2-ol] | 0.05 to 1
c1ccc2c(NN3CCCCC3)nc(-c3ccncc3)nc2c1 [Compound 67, N-piperidin-1-yl-2-pyridin-4-ylquinazolin-4-amine] | ≥ 10
COc1ncc(-c2nc(N[C@H]3c4ccccc4C[C@H]3O)c3ccccc3n2)c(OC)n1 [Compound 52, (1S,2R)-1-({2-[2,4-bis(methyloxy)pyrimidin-5-yl]quinazolin-4-yl}amino)-2,3-dihydro-1H-inden-2-ol] | ≥ 10
OC[C@H](Cc1ccccc1)Nc1nc(-c2ccncc2)nc2ccccc12 [Compound 61, (2S)-3-phenyl-2-[(2-pyridin-4-ylquinazolin-4-yl)amino]propan-1-ol] | 1 to 10
COc1ccc(-c2nc(N[C@H]3c4ccccc4C[C@H]3O)c3ccccc3n2)cn1 [Compound 49, (1S,2R)-1-({2-[6-(methyloxy)pyridin-3-yl]quinazolin-4-yl}amino)-2,3-dihydro-1H-inden-2-ol] | 1 to 10
CN(C)CCNc1nc(-c2ccncc2)nc2ccccc12 [Compound 8, N,N-dimethyl-N′-(2-pyridin-4-ylquinazolin-4-yl)ethane-1,2-diamine] | ≥ 10
c1ccc2c(NC3CCCCC3)nc(-c3ccncc3)nc2c1 [Compound 1, N-cyclohexyl-2-pyridin-4-ylquinazolin-4-amine] | 1 to 10
O[C@@H]1CCCC[C@H]1Nc1nc(-c2cccnc2)nc2ccccc12 [Compound 36, (1R,2R)-2-[(2-pyridin-3-ylquinazolin-4-yl)amino]cyclohexanol] | ≥ 10
CC(C)[C@@H](CO)Nc1nc(-c2ccncc2)nc2ccccc12 [Compound 54, (2S)-3-methyl-2-[(2-pyridin-4-ylquinazolin-4-yl)amino]butan-1-ol] | 1 to 10
CC(C)(C)OC(=O)N1CCN(c2nc(-c3ccncc3)nc3ccccc23)CC1 [Compound 14, 1,1-dimethylethyl 4-(2-pyridin-4-ylquinazolin-4-yl)piperazine-1-carboxylate] | ≥ 10
Oc1ccc(N2CCN(c3nc(-c4ccncc4)nc4ccccc34)CC2)cc1 [Compound 11, 4-[4-(2-pyridin-4-ylquinazolin-4-yl)piperazin-1-yl]phenol] | ≥ 10
c1ccc2c(c1)CC[C@H]2Cc1nc(-c2ccncc2)nc2ccccc12 [Compound 16, 4-[(1S)-2,3-dihydro-1H-inden-1-ylmethyl]-2-pyridin-4-ylquinazoline] | 1 to 10
